Measurements from US20230203021A1, “GLP-1 RECEPTOR AGONIST, PHARMACEUTICAL COMPOSITION COMPRISING SAME, AND METHOD FOR PREPARING SAME” (LG CHEM, LTD., priority 2020, published 2023).

molecular target: T1, hGLP-1R (Homo sapiens, UniProt P43220); experiment: Measurement of activity of GLP-1R agonist (cell-based luciferase assay), CHO-K1/hGLP-1R/CRE-luciferase cell line; conditions: GLP-1R activity; CHO-K1/hGLP-1R/CRE-luciferase cells, 9 concentrations, four hours of incubation, Bright-Glo luminescence
T1 construct: expressed in transfected cells; host or cells: CHO-K1
T1 sequence (P43220 24-463): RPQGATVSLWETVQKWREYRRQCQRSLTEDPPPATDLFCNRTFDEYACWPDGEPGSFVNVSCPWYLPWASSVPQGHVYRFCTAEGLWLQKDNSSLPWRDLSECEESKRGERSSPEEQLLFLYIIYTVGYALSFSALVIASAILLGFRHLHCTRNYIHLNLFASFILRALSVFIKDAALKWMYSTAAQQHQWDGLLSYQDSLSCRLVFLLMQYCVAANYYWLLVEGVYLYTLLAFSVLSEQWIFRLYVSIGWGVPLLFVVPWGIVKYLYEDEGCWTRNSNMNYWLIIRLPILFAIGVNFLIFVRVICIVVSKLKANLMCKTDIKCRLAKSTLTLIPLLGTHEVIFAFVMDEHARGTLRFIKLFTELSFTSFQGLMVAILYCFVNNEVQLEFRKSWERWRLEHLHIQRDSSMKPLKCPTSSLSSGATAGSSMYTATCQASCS
Description: 15,000 cells of a CHO-K1/hGLP-1R/CRE-luciferase cell line were seeded in a 96-well plate. A medium used herein was Ham’s F-12 Nutrient medium. The cells were incubated for 18 hours in a 5% CO2 incubator which was maintained at 37° C., and then treated with drugs. Each drug dispensed at 9 different concentrations was dissolved in a DMEM/F-12 + 1% FBS medium, and the cell line was treated with each of 100 µl thereof. After four hours of incubation, a Bright-Glo® luciferase assay system kit was used to add 30 µl of an assay reagent per well. A plate was stored at room temperature for 15 minutes, and then luminescence was measured using a SpectraMax M5 reader.

Structure (SMILES)	EC50
O=C(O)c1ccc2nc(Cc3ccc(-c4cccc(OCc5ccc(Cl)cc5F)n4)cc3)n(C[C@@H]3CCOC3)c2c1 [Example 35, (S)-2-(4-(6-((4-chloro-2-fluorobenzyl)oxy)pyridin-2-yl)benzyl)-1-((tetrahydrofuran-3-yl)methyl)-1H-benzo[d]imidazole-6-carboxylic acid]	0.784 nM
CCCn1cnnc1Cn1c(Cc2ccc(-c3cccc(OCc4ccc(Cl)cc4F)n3)cc2)nc2ccc(C(=O)O)cc21 [Example 24, 2-(4-(6-((4-chloro-2-fluorobenzyl)oxy)pyridin-2-yl)benzyl)-1-((4-propyl-4H-1,2,4-triazol-3-yl)methyl)-1H-benzo[d]imidazole-6-carboxylic acid]	0.167 nM
O=C(O)c1ccc2nc(Cc3ccc(-c4cccc(OCc5ccc(Cl)cc5F)n4)cc3)n(CC3CCCO3)c2c1 (stereo not shown) [Example 1, 2-(4-(6-((4-chloro-2-fluorobenzyl)oxy)pyridin-2-yl)benzyl)-1-((tetrahydrofuran-2-yl)methyl)-1H-benzo[d]imidazole-6-carboxylic acid]	0.205 nM
O=C(O)c1ccc2nc(Cc3ccc(-c4cccc(OCc5ccc(Cl)cc5F)n4)c(Cl)c3)n(C[C@@H]3CCOC3)c2c1 [Example 37, (S)-2-(3-chloro-4-(6-((4-chloro-2-fluorobenzyl)oxy)pyridin-2-yl)benzyl)-1-((tetrahydrofuran-3-yl)methyl)-1H-benzo[d]imidazole-6-carboxylic acid]	1.34 nM
O=C(O)c1ccc2nc(Oc3ccc(-c4cccc(OCc5ccc(Cl)cc5F)n4)cc3F)n(C[C@@H]3CCO3)c2c1 [Example 17, (S)-2-(4-(6-((4-chloro-2-fluorobenzyl)oxy)pyridin-2-yl)-2-fluorophenoxy)-1-(oxetan-2-ylmethyl)-1H-benzo[d]imidazole-6-carboxylic acid]	0.357 nM

Now those with a lower EC50, led by results:

EC50	Structure (SMILES)
0.13 nM	CCCn1cnnc1Cn1c(Cc2ccc(-c3cccc(OCc4ccc(Cl)cc4F)n3)c(F)c2)nc2ccc(C(=O)O)cc21 [Example 27, 2-(4-(6-((4-chloro-2-fluorobenzyl)oxy)pyridin-2-yl)-3-fluorobenzyl)-1-((4-propyl-4H-1,2,4-triazol-3-yl)methyl)-1H-benzo[d]imidazole-6-carboxylic acid]
0.007 nM	O=C(O)c1ccc2nc(Cc3ccc(-c4cccc(OCc5ccc(Cl)cc5F)n4)cc3)n(C[C@@H]3CCO3)c2c1 [Example 2, (S)-2-(4-(6-((4-chloro-2-fluorobenzyl)oxy)pyridin-2-yl)benzyl)-1-(oxetan-2-ylmethyl)-1H-benzo[d]imidazole-6-carboxylic acid]
